Measured values from paper PMC10743905, “Design, Synthesis, and In Vitro and In Vivo Bioactivity Studies of Hydrazide–Hydrazones of 2,4-Dihydroxybenzoic Acid” (International Journal of Molecular Sciences, 2023).
In brackets after ≈: the same amount, converted by molar mass. Where two headings read alike, the source gives them in different places.

Tests used:
Assay in all cases: Broth microdilution MIC/MBC
Type in all cases: cell-based
[1] = system: Bacillus cereus ATCC 10876; settings: for MBC: ATCC10876
Method in brief: (§1)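 Broth microdilution per EUCAST and CLSI guidelines: 0.5 McFarland inocula in 0.85% NaCl added to two-fold compound dilutions (1000–0.488 µg/ml final). Media were Mueller-Hinton broth for bacteria and RPMI 1640 with MOPS for yeasts.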

[2] = system: Bordetella bronchiseptica ATCC 4617; settings: for MBC / MIC: ATCC4617
Method in brief: as §1

[3] = system: Enterococcus faecalis ATCC 29212; settings: for MBC: ATCC29212, read-out: MBC; for MIC: ATCC29212, read-out: MIC
Method in brief: as §1

[4] = system: Escherichia coli ATCC 25922; settings: for MBC / MIC: ATCC25922
Method in brief: as §1

[5] = system: Klebsiella pneumoniae ATCC 13883; settings: for MBC / MIC: ATCC13883
Method in brief: as §1

Structure (SMILES)	MBC/MIC [1]	MBC [1]	MIC ([1]; ATCC10876, read-out: MIC)	MBC/MIC [2]	MBC [2]	MIC [2]	MBC/MIC [3]	MBC [3]	MIC [3]	MBC/MIC [4]	MBC [4]	MIC [4]	MBC/MIC [5]	MBC [5]	MIC [5]	MIC [1]
CCCc1ccc(/C=N/NC(=O)c2ccc(O)cc2O)cc1 [Compound 13, 2,4-dihydroxy-N-[(4-propylphenyl)methylidene]benzohydrazide]	> 1	> 1000 µg/mL	1000 µg/mL (≈ 3.35 mM)	> 1	> 1000 µg/mL	1000 µg/mL (≈ 3.35 mM)	> 1	> 1000 µg/mL	1000 µg/mL (≈ 3.35 mM)	> 1	> 1000 µg/mL	1000 µg/mL (≈ 3.35 mM)	> 1	> 1000 µg/mL	1000 µg/mL (≈ 3.35 mM)	
O=C(N/N=C/c1cc(I)cc(I)c1O)c1ccc(O)cc1O [Compound 18, 2,4-dihydroxy-N-[(2-hydroxy-3,5-diiodophenyl)methylidene]benzohydrazide]	4	15.6 µg/mL (≈ 0.0298 mM)	3.91 µg/mL (≈ 0.00746 mM)	> 2	> 1000 µg/mL	500 µg/mL (≈ 0.954 mM)	4	15.6 µg/mL (≈ 0.0298 mM)	3.91 µg/mL (≈ 0.00746 mM)	> 2	> 1000 µg/mL	500 µg/mL (≈ 0.954 mM)	> 2	> 1000 µg/mL	500 µg/mL (≈ 0.954 mM)	3.91 µg/mL (≈ 0.00746 mM)
O=C(N/N=C/c1ccccc1[N+](=O)[O-])c1ccc(O)cc1O [Compound 19, 2,4-dihydroxy-N-[(2-nitrophenyl)methylidene]benzohydrazide]	> 4	> 1000 µg/mL	250 µg/mL (≈ 0.83 mM)	> 1	> 1000 µg/mL	1000 µg/mL (≈ 3.32 mM)	> 2	> 1000 µg/mL	500 µg/mL (≈ 1.66 mM)	> 1	> 1000 µg/mL	1000 µg/mL (≈ 3.32 mM)	> 1	> 1000 µg/mL	500 µg/mL (≈ 1.66 mM)	
O=C(N/N=C/c1cccc([N+](=O)[O-])c1)c1ccc(O)cc1O [Compound 20, 2,4-dihydroxy-N-[(3-nitrophenyl)methylidene]benzohydrazide]			> 1000 µg/mL			> 1000 µg/mL			> 1000 µg/mL			> 1000 µg/mL			> 1000 µg/mL	
O=C(N/N=C/c1ccc([N+](=O)[O-])cc1)c1ccc(O)cc1O [Compound 21, 2,4-dihydroxy-N-[(4-nitrophenyl)methylidene]benzohydrazide]	> 2	> 1000 µg/mL	500 µg/mL (≈ 1.66 mM)			> 1000 µg/mL	> 4	> 1000 µg/mL	500 µg/mL (≈ 1.66 mM)			> 1000 µg/mL			> 1000 µg/mL	
O=C(N/N=C/c1ccccc1Cl)c1ccc(O)cc1O [Compound 22, N-[(2-chlorophenyl)methylidene]-2,4-dihydroxybenzohydrazide]			> 1000 µg/mL			> 1000 µg/mL			> 1000 µg/mL			> 1000 µg/mL			> 1000 µg/mL	
O=C(N/N=C/c1ccccc1Br)c1ccc(O)cc1O [Compound 23, N-[(2-bromophenyl)methylidene]-2,4-dihydroxybenzohydrazide]			> 1000 µg/mL			> 1000 µg/mL			> 1000 µg/mL			> 1000 µg/mL			> 1000 µg/mL	
O=C(N/N=C/c1ccccc1F)c1ccc(O)cc1O [Compound 24, N-[(2-fluorophenyl)methylidene]-2,4-dihydroxybenzohydrazide]	> 1	> 1000 µg/mL	1000 µg/mL (≈ 3.65 mM)			> 1000 µg/mL	> 1	> 1000 µg/mL	1000 µg/mL (≈ 3.65 mM)			> 1000 µg/mL			> 1000 µg/mL	
